# Key:
# Mice = experiment: Mouse marble-burying study (OCD model); type: in vivo; conditions: for Marbles Buried: of 15 marbles, 30 min
# Source text: The marble burying test is used to measure repetitive and anxiety-related behavior in rodents. It is based on the observation that rats and mice will bury either harmful or harmless objects in their bedding, and it has been used as an animal model to measure the effect of pharmacological interventions in treatment of repetitive behavior disorders, such as OCD.
# MPEP is a selective mGluR5 glutamate receptor antagonist. […] Mice in groups (1) are orally administered the vehicle, and mice in group (4) are given an intraperitoneal injection of MPEP just prior to the start of the test.
# The test is conducted in rectangular cages with 4-5 cm of wood chip bedding in a room with the window shades lowered and the door closed to minimize distractions. Fifteen clean marbles are evenly spaced on top of the bedding in three rows of five marbles. One mouse is placed in each cage. The mouse and cage is left undisturbed for 30 minutes. At the end of the test, the mouse is removed and the number of marbles buried to at least ⅔ of their depth is counted.
# 5-HT2 receptor = system: 5-HT2 receptor; set-up: species or system mice; conditions: mouse, in vivo; for block of DOI head twitch (in words): po
# ERK2 = experiment: CNS phosphoprotein profile, ERK2 phosphorylation at Thr183 and Tyr185 in nucleus accumbens; type: in vivo, mice; conditions: 3 mg/kg; mouse nucleus accumbens
# Protocol: (§1) A comprehensive molecular phosphorylation study is also carried out to examine the central nervous system (CNS) profile of the compounds of Example 1 and Example 3. The extent of protein phosphorylation for selected key central nervous system proteins is measured in mice nucleus accumbens.
# (§2) Mice were killed 30 minutes to 2 hours post-injection by focused microwave cranial irradiation, which preserves brain phosphoprotein as it exists at the time of death. Nucleus accumbens was then dissected from each mouse brain, sliced and frozen in liquid nitrogen. Samples were further prepared for phosphoprotein analysis via SDS-PAGE electrophoresis followed by phosphoprotein-specific immunoblotting, as described in Zhu H, et al., Brain Res. 2010 Jun 25; 1342:11-23. Phosphorylation at each site was quantified, normalized to total levels of the protein (non-phosphorylated), and expressed as percent of the level of phosphorylation in vehicle-treated control mice.
# [1] = system: TH (tyrosine hydroxylase); experiment: CNS phosphoprotein profile, tyrosine hydroxylase phosphorylation at Ser40 in nucleus accumbens; type: in vivo, mice; conditions: mouse nucleus accumbens; for effect on tyrosine hydroxylase phosphorylation at Ser40 (in words): 3 mg/kg, 30 minutes or 60 minutes; for increase in TH phosphorylation: haloperidol 2 mg/kg, risperidone dose not given
# Protocol: as §1, §2
# GluR1 = experiment: CNS phosphoprotein profile, GluR1 phosphorylation at Ser845 in nucleus accumbens; type: in vivo, mice; conditions: 3 mg/kg; mouse nucleus accumbens
# Protocol: as §1, §2
# NR2B = experiment: CNS phosphoprotein profile, NR2B phosphorylation at Tyr1472 in nucleus accumbens; type: in vivo, mice; conditions: 3 mg/kg; 30-60 minutes; mouse nucleus accumbens
# Protocol: as §1, §2
# Mu opiate receptor = Mu opiate receptor (Homo sapiens, UniProt P35372); type: binding
# Chain of Mu opiate receptor (P35372 whole entry): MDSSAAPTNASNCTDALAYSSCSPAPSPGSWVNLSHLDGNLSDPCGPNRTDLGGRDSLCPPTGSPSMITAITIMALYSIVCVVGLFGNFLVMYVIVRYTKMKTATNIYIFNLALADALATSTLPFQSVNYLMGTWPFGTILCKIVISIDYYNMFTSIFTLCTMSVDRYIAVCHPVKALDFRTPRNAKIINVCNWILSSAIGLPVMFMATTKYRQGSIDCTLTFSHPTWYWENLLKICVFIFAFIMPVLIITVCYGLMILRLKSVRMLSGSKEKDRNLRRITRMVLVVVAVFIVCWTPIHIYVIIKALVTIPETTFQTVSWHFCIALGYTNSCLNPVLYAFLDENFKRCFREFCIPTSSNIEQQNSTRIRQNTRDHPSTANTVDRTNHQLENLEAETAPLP
smiles,measurement,setting,value
"Cc1cccc(C#Cc2ccccc2)n1 [MPEP, 2-methyl-6-(phenylethynyl)pyridine, reference compound]",Marbles Buried,Mice; 20 mg/kg intraperitoneal just prior to the test,0.2
"CN1CCN2c3c(cccc31)[C@@H]1CN(CCCC(O)c3ccc(F)cc3)CC[C@@H]12 (stereo partly shown) [Formula B, reference compound]",EC50 for reducing DOI-induced head twitches,5-HT2 receptor,"0.31 mg/kg, p.o."
"O=C1CN2c3c(cccc3[C@@H]3CN(CCCC(=O)c4ccc(F)cc4)CC[C@@H]32)N1 [Example 1, 4-((6bR,10aS)-2-Oxo-2,3,6b,9,10,10a-Hexahydro-1H,7H-Pyrido[3′,4′:4,5]Pyrrolo[1,2,3-De]Quinoxalin-8-Yl)-1-(4-Fluoro-Phenyl)-Butan-1-One]",effect on ERK2 phosphorylation at Thr183 and Tyr185 (in words),ERK2,slight decrease
same,EC50 for reducing DOI-induced head twitches,5-HT2 receptor,"0.23 mg/kg, p.o."
same,block of DOI head twitch (in words),5-HT2 receptor,potently block DOI head twitch
same,effect on tyrosine hydroxylase phosphorylation at Ser40 (in words),[1],neither the compound of Example 1 nor of Example 3 has a significant effect
same,effect on GluR1 phosphorylation at Ser845 (in words),GluR1,slight increase
same,effect on NR2B phosphorylation at Tyr1472 (in words),NR2B,neither the compound of Example 1 nor of Example 3 has a significant effect
"Cc1nc2n(c(=O)c1CCN1CCC(c3noc4cc(F)ccc34)CC1)CCCC2 [risperidone, reference compound]",increase in TH phosphorylation,[1],greater than 500%
"O=C1CN2c3c(cccc3[C@@H]3CN(CCCOc4ccc(F)cc4)CC[C@@H]32)N1 [Example 3, (6bR,10aS)-8-(3-(4-Fluorophenoxy)Propyl)-6b,7,8,9,10,10a-Hexahydro-1H-Pyrido[3′,4′:4,5]Pyrrolo[1,2,3-De]Quinoxalin-2(3H)-One]",effect on ERK2 phosphorylation at Thr183 and Tyr185 (in words),ERK2,slight decrease
same,EC50 for reducing DOI-induced head twitches,5-HT2 receptor,"0.44 mg/kg, p.o."
same,block of DOI head twitch (in words),5-HT2 receptor,potently block DOI head twitch
same,effect on tyrosine hydroxylase phosphorylation at Ser40 (in words),[1],neither the compound of Example 1 nor of Example 3 has a significant effect
same,effect on GluR1 phosphorylation at Ser845 (in words),GluR1,slight increase
same,Marbles Buried,Mice; 0.3 mg/kg orally 30 minutes prior to the test,9.3
same,decrease in marble burying compared to the control (in words),"Mice; 0.3 mg/kg, p <0.01",statistically significant decrease
same,effect on NR2B phosphorylation at Tyr1472 (in words),NR2B,neither the compound of Example 1 nor of Example 3 has a significant effect
"CN1CCN2c3c(cccc31)[C@@H]1CN(CCCC(=O)c3ccc(F)cc3)CC[C@@H]12 [Formula A, reference compound]",activity at the Mu opiate receptor (in words),Mu opiate receptor,not active
"O=C(CCCN1CCC(O)(c2ccc(Cl)cc2)CC1)c1ccc(F)cc1 [haloperidol, reference compound]",increase in TH phosphorylation,[1],greater than 400%
